EC50 data for 20 compounds are collected here from patent US20220089575A1, “FARNESOID X RECEPTOR AGONISTS AND USES THEREOF” (Metacrine, Inc., priority 2017, published 2022).

Some results are limits rather than exact numbers.

As usually defined, the EC50 is the concentration at which the effect is half-maximal. Higher therefore signals lower potency in that assay.

For the test, the target named is T1, hFXR (Homo sapiens, UniProt Q96RI1).
T1 construct: expressed in transfected cells; host or cells: CV-1 cells
T1 sequence (Q96RI1 1-486): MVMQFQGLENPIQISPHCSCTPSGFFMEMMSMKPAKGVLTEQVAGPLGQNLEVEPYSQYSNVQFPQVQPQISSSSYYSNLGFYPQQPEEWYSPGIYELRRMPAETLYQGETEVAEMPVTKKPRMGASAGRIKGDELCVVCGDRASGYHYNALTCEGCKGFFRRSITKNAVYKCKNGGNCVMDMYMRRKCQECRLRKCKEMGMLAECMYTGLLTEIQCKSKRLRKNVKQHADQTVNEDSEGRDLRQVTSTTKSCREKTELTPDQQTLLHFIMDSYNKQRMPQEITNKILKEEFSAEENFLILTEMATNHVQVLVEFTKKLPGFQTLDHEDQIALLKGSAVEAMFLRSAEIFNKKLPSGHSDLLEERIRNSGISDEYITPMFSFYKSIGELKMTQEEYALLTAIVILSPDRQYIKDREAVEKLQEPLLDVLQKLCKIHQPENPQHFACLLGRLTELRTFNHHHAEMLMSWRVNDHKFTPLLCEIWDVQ
T1 sequence (P19793 1-462 partner): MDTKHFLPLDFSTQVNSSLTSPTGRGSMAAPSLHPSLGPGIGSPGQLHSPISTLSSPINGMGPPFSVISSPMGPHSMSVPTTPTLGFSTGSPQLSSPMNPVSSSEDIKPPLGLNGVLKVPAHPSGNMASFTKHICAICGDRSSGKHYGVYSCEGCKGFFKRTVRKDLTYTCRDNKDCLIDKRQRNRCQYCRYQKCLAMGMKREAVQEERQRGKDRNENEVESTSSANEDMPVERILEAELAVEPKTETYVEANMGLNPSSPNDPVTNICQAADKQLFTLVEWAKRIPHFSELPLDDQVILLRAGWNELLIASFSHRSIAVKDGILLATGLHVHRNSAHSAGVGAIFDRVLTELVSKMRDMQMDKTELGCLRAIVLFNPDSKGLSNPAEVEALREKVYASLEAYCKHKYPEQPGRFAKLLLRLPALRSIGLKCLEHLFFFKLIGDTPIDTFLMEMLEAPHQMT
Description: In Vitro FXR Assay (TK): TK-ECRE-luc reporter in transfected CV-1 cells. The format is cell-based. To be noted: 18 hrs, luminescence, maximum efficacy of <25% of the Fexarmine control classified as '+'. The procedure, abridged: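 Luciferase luminescence read-out from lysed CV-1 cells transiently co-expressing hFXR and hRXR with a TK-ECRE-luc reporter (pCMX-YFP co-transfected). Compound exposure lasted 18 h at 37 °C, 5% CO2, in medium containing charcoal super-stripped serum.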
As for `COC(=O)[C@H]1CC[C@H](C(=O)N(C[C@H]2CC[C@H](c3ccc(N(C)C)nc3)CC2)c2cccc(-c3cnc(C4CC4)s3)c2)CC1` [Compound 18.08, trans-Methyl 4-((3-(2-cyclopropylthiazol-5-yl)phenyl)((trans-4-(6-(dimethylamino)pyridin-3-yl)cyclohexyl)methyl)carbamoyl) cyclohexanecarboxylate], the EC50 was ≤ 250 nM. Under `COc1ccc([C@H]2CC[C@H](CN(c3cccc(-c4cnc(C5CC5)s4)c3)C(=O)[C@H]3CC[C@H](C(=O)OC)CC3)CC2)nc1C#N` [Compound 18.09, trans-Methyl 4-(((trans-4-(6-cyano-5-methoxypyridin-2-yl)cyclohexyl)methyl)(3-(2-cyclopropylthiazol-5-yl)phenyl)carbamoyl) cyclohexanecarboxylate] stands ≤ 250 nM; under `COC(=O)C12CCC(C(=O)N(C[C@H]3CC[C@H](c4ccc(OC)c(C)c4)CC3)c3cccc(-c4cnc(OC)s4)c3)(CC1)CC2` [Compound 18.10, Methyl 4-(((trans-4-(4-methoxy-3-methylphenyl)cyclohexyl)methyl)(3-(2-methoxythiazol-5-yl)phenyl)carbamoyl)bicyclo[2.2.2]octane-1-carboxylate], ≤ 250 nM. In the case of `COc1ncc(-c2cccc(N(C[C@H]3CC[C@H](c4ccc(OC)c(C)c4)CC3)C(=O)[C@H]3CC[C@H](OCc4ccccc4)CC3)c2)s1` [Compound 18.11, trans-4-(Benzyloxy)-N-((trans-4-(4-methoxy-3-methylphenyl)cyclohexyl)methyl)-N-(3-(2-methoxythiazol-5-yl)phenyl)cyclohexanecarboxamide], the EC50 was ≥ 1000 nM. Under `COc1ccc(CO[C@H]2CC[C@H](C(=O)N(C[C@H]3CC[C@H](c4ccc(OC)c(C)c4)CC3)c3cccc(-c4cnc(OC)s4)c3)CC2)cc1` [Compound 18.12, trans-N-((trans-4-(4-Methoxy-3-methylphenyl)cyclohexyl)methyl)-4-((4-methoxybenzyl)oxy)-N-(3-(2-methoxythiazol-5-yl)phenyl) cyclohexanecarboxamide] stands ≥ 1000 nM. On to `COc1ccc([C@H]2CC[C@H](CN(c3cccc(-c4cnn(C5CC5)c4)c3)C(=O)[C@H]3CC[C@H](C(=O)OC)CC3)CC2)cc1C` [Compound 18.13, trans-Methyl 4-((3-(1-cyclopropyl-1H-pyrazol-4-yl)phenyl)((trans-4-(4-methoxy-3-methylphenyl)cyclohexyl)methyl)carbamoyl) cyclohexanecarboxylate], for which the concentration giving a half-maximal response (EC50) is ≤ 250 nM.

For `COC(=O)[C@H]1CC[C@H](C(=O)N(C[C@H]2CC[C@H](c3ccc(N(C)C)nc3)CC2)c2cccc(-c3cnn(C4CC4)c3)c2)CC1` [Compound 18.14, trans-Methyl 4-((3-(1-cyclopropyl-1H-pyrazol-4-yl)phenyl)((trans-4-(6-(dimethylamino)pyridin-3-yl)cyclohexyl)methyl)carbamoyl) cyclohexanecarboxylate], the EC50 was ≤ 250 nM.

As for `COc1ccc(C23CCC(CN(c4cccc(-c5cnn(C6CC6)c5)c4)C(=O)[C@H]4CC[C@H](NC(=O)OC(C)(C)C)CC4)(CC2)CC3)cc1C` [Compound 18.15, tert-Butyl (4-((3-(1-cyclopropyl-1H-pyrazol-4-yl)phenyl)((4-(4-methoxy-3-methylphenyl)bicyclo[2.2.2]octan-1-yl)methyl)carbamoyl)cyclohexyl) trans-carbamate], the EC50 was ≤ 250 nM. For `COc1ccc([C@H]2CC[C@H](CN(c3cccc(-c4cnn(C(C)C)c4)c3)C(=O)[C@H]3CC[C@H](NC(=O)OC(C)(C)C)CC3)CC2)cc1C` [Compound 18.16, tert-Butyl (trans-4-((3-(1-isopropyl-1H-pyrazol-4-yl)phenyl)((trans-4-(4-methoxy-3-methylphenyl)cyclohexyl)methyl)carbamoyl)cyclohexyl) carbamate] the value was ≤ 250 nM; for `COc1ccc([C@H]2CC[C@H](CN(c3cc(-c4cnn(C5CC5)c4)ccn3)C(=O)[C@H]3CC[C@H](C(=O)OC)CC3)CC2)nc1C` [Compound 18.17, trans-Methyl 4-((4-(1-cyclopropyl-1H-pyrazol-4-yl)pyridin-2-yl)((trans-4-(5-methoxy-6-methylpyridin-2-yl)cyclohexyl)methyl)carbamoyl) cyclohexanecarboxylate], 250 to 1000 nM. Under `CCOC(=O)C[C@H]1CC[C@H](C(=O)N(C[C@H]2CC[C@H](c3ccc(OC)c(C)n3)CC2)c2cc(-c3cnn(C4CC4)c3)ccn2)CC1` [Compound 18.18, Ethyl 2-(trans-4-((4-(1-cyclopropyl-1H-pyrazol-4-yl)pyridin-2-yl)((trans-4-(5-methoxy-6-methylpyridin-2-yl)cyclohexyl)methyl)carbamoyl)cyclohexyl)acetate] stands ≤ 250 nM; under `COc1ccc([C@H]2CC[C@H](CN(c3cccc(-c4cnn(C5CC5)c4)c3)C(=O)[C@H]3CC[C@H](C(=O)OC)CC3)CC2)nc1C` [Compound 18.19, trans-Methyl 4-((3-(1-cyclopropyl-1H-pyrazol-4-yl)phenyl)((trans-4-(5-methoxy-6-methylpyridin-2-yl)cyclohexyl)methyl)carbamoyl) cyclohexanecarboxylate], ≤ 250 nM. On to `CCOC(=O)C[C@H]1CC[C@H](C(=O)N(C[C@H]2CC[C@H](c3ccc(OC)c(C)n3)CC2)c2cc(-c3cnn(C(C)C)c3)ccn2)CC1` [Compound 18.20, Ethyl 2-(trans-4-((4-(1-isopropyl-1H-pyrazol-4-yl)pyridin-2-yl)((trans-4-(5-methoxy-6-methylpyridin-2-yl)cyclohexyl)methyl)carbamoyl)cyclohexyl)acetate], for which the EC50 is ≤ 250 nM. For `CCOC(=O)C[C@H]1CC[C@H](C(=O)N(C[C@H]2CC[C@H](c3ccc(OC)c(C#N)c3)CC2)c2cc(-c3cnn(C(C)C)c3)ccn2)CC1` [Compound 18.21, Ethyl 2-(trans-4-(((trans-4-(3-cyano-4-methoxyphenyl)cyclohexyl)methyl)(4-(1-isopropyl-1H-pyrazol-4-yl)pyridin-2-yl)carbamoyl)cyclohexyl)acetate] the value was ≤ 250 nM. For `CCOC(=O)C[C@H]1CC[C@H](C(=O)N(C[C@H]2CC[C@H](c3ccc(OC)c(C#N)n3)CC2)c2cc(-c3cnn(C(C)C)c3)ccn2)CC1` [Compound 18.22, Ethyl 2-(trans-4-(((trans-4-(6-cyano-5-methoxypyridin-2-yl)cyclohexyl)methyl)(4-(1-isopropyl-1H-pyrazol-4-yl)pyridin-2-yl)carbamoyl)cyclohexyl) acetate], the EC50 is ≤ 250 nM.

Consider `COc1ccc([C@H]2CC[C@H](CN(c3cc(-c4coc(C5CC5)n4)ccn3)C(=O)[C@H]3CC[C@H](C(=O)OC)CC3)CC2)nc1C` [Compound 18.23, trans-Methyl 4-((4-(2-cyclopropyloxazol-4-yl)pyridin-2-yl) ((trans-4-(5-methoxy-6-methylpyridin-2-yl)cyclohexyl)methyl)carbamoyl) cyclohexanecarboxylate], for which the EC50 was ≤ 250 nM. For `COc1ccc([C@H]2CC[C@H](CN(c3cccc(-c4coc(C5CC5)n4)c3)C(=O)[C@H]3CC[C@H](C(=O)OC)CC3)CC2)nc1C#N` [Compound 18.24, trans-Methyl 4-(((trans-4-(6-cyano-5-methoxypyridin-2-yl)cyclohexyl)methyl)(3-(2-cyclopropyloxazol-4-yl)phenyl)carbamoyl) cyclohexanecarboxylate] the value was ≤ 250 nM; for `COc1ccc([C@H]2CC[C@H](CN(c3cccc(-c4cnc(C5CC5)s4)c3)C(=O)[C@H]3CC[C@H](CC(=O)O)CC3)CC2)cc1C` [Compound 19, 2-(trans-4-((3-(2-Cyclopropylthiazol-5-yl)phenyl)((trans-4-(4-methoxy-3-methylphenyl)cyclohexyl)methyl)carbamoyl)cyclohexyl)acetic acid], ≤ 250 nM; for `COc1ccc([C@H]2CC[C@H](CN(c3cccc(-c4cnc(C5CC5)s4)c3)C(=O)[C@H]3CC[C@H](CC(=O)O)CC3)CC2)cc1C#N` [Compound 20, 2-(trans-4-(((trans-4-(3-Cyano-4-methoxyphenyl)cyclohexyl)methyl)(3-(2-cyclopropylthiazol-5-yl)phenyl)carbamoyl)cyclohexyl)acetic acid], ≤ 250 nM. `COc1ccc([C@H]2CC[C@H](CN(c3cccc(-c4cnc(C5CC5)s4)c3)C(=O)[C@H]3CC[C@H](CC(=O)O)CC3)CC2)nc1C#N` [Compound 20.01, 2-(trans-4-(((trans-4-(6-Cyano-5-methoxypyridin-2-yl)cyclohexyl)methyl)(3-(2-cyclopropylthiazol-5-yl)phenyl)carbamoyl)cyclohexyl) acetic acid]: the EC50 is ≤ 250 nM.
